From patent US12679878B2, “CRF2 receptor agonists and their use in therapy” (SANOFI, priority 2020, dated 2026)
Starred links: 1 amine or outer side, 2 acyl side, 3 side chain; linkers in the order of their positions; H or OH if unused. Non-standard residues stand in square brackets, D forms with d. Residues, ends and D or L forms follow the SMILES beside them. Groups on a side chain read outwards from the residue. *: point of attachment. γGlu = O=C(O)[C@H](CCC(=O)[*:2])N[*:1]; Palmitoyl = CCCCCCCCCCCCCCCC(=O)*; Aib = CC(C)(N)C(=O)O

Legend:
CRF1R receptor = molecular target: T1, CRF1R receptor (Homo sapiens, UniProt P34998); assay: cAMP activity at anti-target CRF1R, CHO-K1 cell line clone 2 (Example 19.10); assay type: cell-based; settings: ratio of CRF1 EC50 to CRF2 EC50
T1 construct: host or cells: CHO-K1 clone 2
T1 sequence (P34998 24-415): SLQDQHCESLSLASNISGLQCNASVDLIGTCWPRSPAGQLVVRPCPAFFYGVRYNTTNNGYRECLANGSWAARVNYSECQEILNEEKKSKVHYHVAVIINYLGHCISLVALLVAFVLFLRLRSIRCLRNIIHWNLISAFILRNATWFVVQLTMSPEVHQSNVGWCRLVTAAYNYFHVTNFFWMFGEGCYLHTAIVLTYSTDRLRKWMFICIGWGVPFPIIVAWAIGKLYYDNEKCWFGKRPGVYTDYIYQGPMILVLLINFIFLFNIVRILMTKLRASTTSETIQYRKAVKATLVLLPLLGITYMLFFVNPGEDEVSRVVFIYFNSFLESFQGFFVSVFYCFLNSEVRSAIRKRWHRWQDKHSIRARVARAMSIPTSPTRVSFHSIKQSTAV
Outline: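 A CRF1R-overexpressing CHO-K1 line (clone 2) was grown in F12/10% FBS/G418 and frozen in aliquots before use. The cAMP assay followed the preceding procedure, with 100% activation defined by Sauvagine at 100 nM.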

human CRF2α receptor = molecular target: T2, human CRF2α receptor (Homo sapiens, UniProt Q13324); assay: cAMP agonism at human CRF2α receptor in TeloHEAC cells, FA modified peptides (Example 19.9); assay type: cell-based; settings: 0% HSA, relative to urocortin 2
T2 construct: expressed in transfected cells; host or cells: TeloHEAC
T2 sequence (Q13324 1-411): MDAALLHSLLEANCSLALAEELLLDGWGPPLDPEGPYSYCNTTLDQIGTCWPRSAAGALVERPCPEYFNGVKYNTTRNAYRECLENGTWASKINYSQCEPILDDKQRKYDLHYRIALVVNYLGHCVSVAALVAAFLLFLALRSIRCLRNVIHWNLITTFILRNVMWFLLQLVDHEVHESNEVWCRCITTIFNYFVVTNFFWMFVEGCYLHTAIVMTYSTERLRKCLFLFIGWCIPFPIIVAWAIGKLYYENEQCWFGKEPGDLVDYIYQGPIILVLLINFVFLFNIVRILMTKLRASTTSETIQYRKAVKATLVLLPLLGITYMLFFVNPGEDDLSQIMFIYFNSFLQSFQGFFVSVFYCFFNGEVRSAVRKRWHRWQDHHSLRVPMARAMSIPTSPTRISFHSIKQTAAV
Outline: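 Efficacy and EC50 are referenced to 100 nM urocortin 2 as 100%, with cAMP measured as the 665/620 nm HTRF ratio after 1 h at room temperature. Compounds (0.5 mM DMSO stock, 16 twofold dilutions) acted 30 min at 37 °C on CRF2α-expressing TeloHEAC cells, buffer containing IBMX and 0% or 0.2% HSA.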

Row | SMILES | CRF1/CRF2 ratio (CRF1R receptor) | EC50 (human CRF2α receptor) [nM]
1 | CCCCCCCCCCCCCCCC(=O)N[C@@H](CCC(=O)NCCCC[C@H](NC(=O)[C@H](CC(C)C)NC(=O)[C@H](CCCCN)NC(=O)[C@@H](NC(=O)[C@@H]1CCCN1C(=O)[C@H](NC(=O)[C@H](CC(=O)O)NC(=O)[C@H](CC(C)C)NC(=O)[C@H](CO)NC(=O)[C@H](CC(C)C)NC(=O)[C@@H](NC(=O)[C@@H](N)[C@@H](C)CC)C(C)C)C(C)C)[C@@H](C)CC)C(=O)N[C@@H](CCC(N)=O)C(=O)N[C@H](C(=O)N[C@@H](CC(C)C)C(=O)N[C@@H](CC(C)C)C(=O)N[C@@H](CCCCN)C(=O)N[C@@H](CCC(N)=O)C(=O)N[C@@H](CCC(=O)O)C(=O)N[C@@H](CCCNC(=N)N)C(=O)N[C@@H](CCC(N)=O)C(=O)N[C@@H](CCCCN)C(=O)NC(C)(C)C(=O)N[C@@H](CCC(N)=O)C(=O)N[C@@H](CCCNC(=N)N)C(=O)N[C@@H](CCC(=O)O)C(=O)N[C@@H](CCC(N)=O)C(=O)N[C@@H](C)C(=O)N[C@@H](CCC(=O)O)C(=O)N[C@@H](CCCCN)C(=O)N[C@@H](CC(N)=O)C(=O)N[C@@H](CCCCN)C(=O)N[C@@H](CCC(N)=O)C(=O)N[C@H](C(=O)N[C@@H](CC(C)C)C(=O)N[C@@H](C)C(=O)N[C@@H](CCC(N)=O)C(=O)N[C@H](C(N)=O)C(C)C)[C@@H](C)CC)[C@@H](C)CC)C(=O)O [compound 204] (H-IVLSLD[dV]PIKLK([γGlu-Palmitoyl])QILLKQERQK[Aib]QREQAEKNKQILAQV-NH2) | 3 | 0.14
2 | CCCCCCCCCCCCCCCC(=O)N[C@@H](CCC(=O)NCCCC[C@H](NC(=O)[C@H](CC(C)C)NC(=O)CNC(=O)[C@@H](NC(=O)[C@@H]1CCCN1C(=O)[C@H](NC(=O)[C@H](CC(=O)O)NC(=O)[C@H](CC(C)C)NC(=O)[C@H](CO)NC(=O)[C@H](CC(C)C)NC(=O)[C@@H](NC(=O)[C@@H](N)[C@@H](C)CC)C(C)C)C(C)C)[C@@H](C)CC)C(=O)N[C@@H](CCC(N)=O)C(=O)N[C@H](C(=O)N[C@@H](CC(C)C)C(=O)N[C@@H](CC(C)C)C(=O)N[C@@H](CCCCN)C(=O)N[C@@H](CCC(N)=O)C(=O)N[C@@H](CCC(=O)O)C(=O)N[C@@H](CCCNC(=N)N)C(=O)N[C@@H](CCC(N)=O)C(=O)N[C@@H](CCCCN)C(=O)N[C@@H](CCCCN)C(=O)NC(C)(C)C(=O)N[C@@H](CCCNC(=N)N)C(=O)N[C@@H](CCC(=O)O)C(=O)N[C@@H](CCC(N)=O)C(=O)N[C@@H](C)C(=O)N[C@@H](CCC(=O)O)C(=O)N[C@H](C(=O)N[C@@H](CC(N)=O)C(=O)N[C@@H](CCCCN)C(=O)N[C@@H](CCCNC(=N)N)C(=O)N[C@H](C(=O)N[C@@H](CC(C)C)C(=O)N[C@@H](CCC(=O)O)C(=O)N[C@@H](CCCNC(=N)N)C(=O)N[C@H](C(N)=O)C(C)C)[C@@H](C)CC)[C@@H](C)O)[C@@H](C)CC)C(=O)O [compound 207] (H-IVLSLD[dV]PIGLK([γGlu-Palmitoyl])QILLKQERQKK[Aib]REQAETNKRILERV-NH2; N-terminus assumed) | 6 | 0.68
3 | CCCCCCCCCCCCCCCC(=O)N[C@@H](CCC(=O)NCCCC[C@H](NC(=O)[C@H](CC(C)C)NC(=O)[C@H](CCCCN)NC(=O)[C@@H](NC(=O)[C@@H]1CCCN1C(=O)[C@H](NC(=O)[C@H](CC(=O)O)NC(=O)[C@H](CC(C)C)NC(=O)[C@H](CO)NC(=O)[C@H](CC(C)C)NC(=O)[C@@H](NC(=O)[C@@H](N)[C@@H](C)CC)C(C)C)C(C)C)[C@@H](C)CC)C(=O)N[C@@H](CCC(N)=O)C(=O)N[C@H](C(=O)N[C@@H](CC(C)C)C(=O)N[C@@H](CC(C)C)C(=O)N[C@@H](CCCCN)C(=O)N[C@@H](CCC(N)=O)C(=O)N[C@@H](CCC(=O)O)C(=O)N[C@@H](CCCNC(=N)N)C(=O)N[C@@H](CCC(N)=O)C(=O)N[C@@H](CCCCN)C(=O)NC(C)(C)C(=O)N[C@@H](CCC(N)=O)C(=O)N[C@@H](CCCNC(=N)N)C(=O)N[C@@H](CCC(N)=O)C(=O)N[C@@H](CCC(N)=O)C(=O)N[C@@H](C)C(=O)N[C@@H](CCC(=O)O)C(=O)N[C@@H](CCCCN)C(=O)N[C@@H](CC(N)=O)C(=O)N[C@@H](CCCCN)C(=O)N[C@@H](CCC(N)=O)C(=O)N[C@H](C(=O)N[C@@H](CC(C)C)C(=O)N[C@@H](C)C(=O)N[C@@H](CCC(N)=O)C(=O)N[C@H](C(N)=O)C(C)C)[C@@H](C)CC)[C@@H](C)CC)C(=O)O [compound 208] (H-IVLSLD[dV]PIKLK([γGlu-Palmitoyl])QILLKQERQK[Aib]QRQQAEKNKQILAQV-NH2; N-terminus assumed) | 2 | 0.9

Next, values leading:

Row | CRF1/CRF2 ratio (CRF1R receptor) | EC50 (human CRF2α receptor) [nM] | SMILES
4 | 3 | 8.62 | CCCCCCCCCCCCCCCC(=O)N[C@@H](CCC(=O)NCCCC[C@H](NC(=O)[C@H](CC(C)C)NC(=O)[C@H](CCCCN)NC(=O)[C@@H](NC(=O)[C@@H]1CCCN1C(=O)[C@H](NC(=O)[C@H](CC(=O)O)NC(=O)[C@H](CC(C)C)NC(=O)[C@H](CO)NC(=O)[C@H](CC(C)C)NC(=O)[C@@H](NC(=O)[C@@H](N)[C@@H](C)CC)C(C)C)C(C)C)[C@@H](C)CC)C(=O)N[C@@H](CCC(N)=O)C(=O)N[C@H](C(=O)N[C@@H](CC(C)C)C(=O)N[C@@H](CC(C)C)C(=O)N[C@@H](CCCCN)C(=O)N[C@@H](CCC(N)=O)C(=O)N[C@@H](CCC(=O)O)C(=O)N[C@@H](CCCNC(=N)N)C(=O)N[C@@H](CCC(N)=O)C(=O)N[C@@H](CCCCN)C(=O)N[C@@H](CCCCN)C(=O)NC(C)(C)C(=O)N[C@@H](CCCNC(=N)N)C(=O)N[C@@H](CCC(N)=O)C(=O)N[C@@H](CCCCN)C(=O)N[C@@H](C)C(=O)N[C@@H](CCC(=O)O)C(=O)N[C@@H](CCCCN)C(=O)N[C@@H](CC(N)=O)C(=O)N[C@@H](CCCCN)C(=O)N[C@@H](CCC(N)=O)C(=O)N[C@H](C(=O)N[C@@H](CC(C)C)C(=O)N[C@@H](C)C(=O)N[C@@H](CCC(N)=O)C(=O)N[C@H](C(N)=O)C(C)C)[C@@H](C)CC)[C@@H](C)CC)C(=O)O [compound 209] (H-IVLSLD[dV]PIKLK([γGlu-Palmitoyl])QILLKQERQKK[Aib]RQKAEKNKQILAQV-NH2; N-terminus assumed)
5 | 1 | 1.23 | CCCCCCCCCCCCCCCC(=O)N[C@@H](CCC(=O)NCCCC[C@H](NC(=O)[C@H](CC(C)C)NC(=O)[C@H](CCCCN)NC(=O)[C@@H](NC(=O)[C@@H]1CCCN1C(=O)[C@H](NC(=O)[C@H](CC(=O)O)NC(=O)[C@H](CC(C)C)NC(=O)[C@H](CO)NC(=O)[C@H](CC(C)C)NC(=O)[C@@H](NC(=O)[C@@H](N)[C@@H](C)CC)C(C)C)C(C)C)[C@@H](C)CC)C(=O)N[C@@H](CCC(N)=O)C(=O)N[C@H](C(=O)N[C@@H](CC(C)C)C(=O)N[C@@H](CC(C)C)C(=O)N[C@@H](CCCCN)C(=O)N[C@@H](CCC(N)=O)C(=O)N[C@@H](CCC(=O)O)C(=O)N[C@@H](CCCNC(=N)N)C(=O)N[C@@H](CCC(N)=O)C(=O)N[C@@H](CCCCN)C(=O)N[C@@H](CCCCN)C(=O)N[C@@H](CCC(N)=O)C(=O)N[C@@H](CCCNC(=N)N)C(=O)N[C@@H](CCC(=O)O)C(=O)N[C@@H](CCC(N)=O)C(=O)N[C@@H](C)C(=O)N[C@@H](CCC(=O)O)C(=O)N[C@@H](CCCCN)C(=O)N[C@@H](CC(N)=O)C(=O)N[C@@H](CCCCN)C(=O)N[C@@H](CCC(N)=O)C(=O)N[C@H](C(=O)N[C@@H](CC(C)C)C(=O)N[C@@H](CCC(=O)O)C(=O)N[C@@H](CCC(N)=O)C(=O)N[C@H](C(N)=O)C(C)C)[C@@H](C)CC)[C@@H](C)CC)C(=O)O [compound 212] (H-IVLSLD[dV]PIKLK([γGlu-Palmitoyl])QILLKQERQKKQREQAEKNKQILEQV-NH2; N-terminus assumed)
